Assay results: patent US5208223A, “Phosphocholine derivative inhibitors of phospholipase A2” (American Cyanamid Company, priority 1992, dated 1993)
Where “and” joins values, the source holds several entries; their conditions need not be identical. Equal values may be shown once. Where a name gives a salt, the structure may show the parent alone.

Legend:
Type in all cases: biochemical
[1] = molecular target: T1, porcine pancreatic PLA2 (Sus scrofa, UniProt P00592); test: SMPLA2 assay: in vitro porcine pancreatic phospholipase A2, mixed micelle design, substrate 100 to 1000 μm; conditions: for inhibition at 10 µg/mL: dose 10 μ/ml; for inhibition at 50 µg/mL: dose 50 μ/ml
T1 construct: purchased Sigma
Description: (§1) Phospholipase A2 activity was measured by a radiochemical assay in which labeled synthetic phosphatidylcholine substrate is converted by porcine pancreatic PLA2 to free radiolabeled arachidonate and lyso PC. Radiolabeled arachidonate is extracted from the reaction mixture and separated from unreacted substrate by column chromatography or TLC. Radioactivity (cpm) in samples is quantitated by liquid scintillation counting. Specific details are as follows:
(§2) Labeled substrate(1-stearyl-2-^3 H-arachidonylphosphatidylcholine; Amersham, sp. act. 84 (uCi/mmole, 0.025 to 0.2 uCi/assay tube and unlabeled substrates (Avanti), in sufficient quantity to give 20,000 cpm to 50,000 cpm and 10 μM to 1,000 μM final concentration/assay tube are dried under a stream of nitrogen. The PLA2 and mPLA2 assays utilized a […] substrate concentration. The mHPLA2 and HPLA2 assays (vida infra) utilized a 10 μM substrate concentration and the SmPLA2 assay utilized a substrate concentration ranging from 100 to 1000 μm. The substrate is then redissolved in 0.1M tris-HCl buffer, pH 9.0 containing 10 mM CaCl2 and 10 mM Na taurocholate detergent. The mixture is sonicated in a Kontes Sonifier to yield a homogeneous dispersion. The "mixed" micellar substrate is clear. An aliquot is reserved for a cpm count (total substrate). The total reaction volume is 500 μL; siliconized glassware or plasticware is used throughout. Enzyme (Sigma, sp. act.>690 U/mg protein and preferably 900 U/mg protein) is diluted 1:750 or 1:1000 in 0.1M tris-HCl buffer, pH 9.0 (without Ca^++ and detergent). Enzyme dilution depends on substrate concentration and required enzyme concentration.
(§3) The substrate in buffer is kept on ice until the reaction is started. The reaction is started by adding 10 μL of diluted enzyme solution to 490 μL of micellar substrate solution. Samples are incubated in a 37° C. water bath for 15 minutes with gentle mixing. The reaction is terminated by the addition of 100 μL of 1M fresh trichloroacetic acid (TCA) solution and chilling the tubes on ice for 30 minutes.
(§4) Samples (600 μL) are extracted with 3 ml CHCl3 /MeOH (2:1) for thin layer chromatography or in hexane/ether (9:1) for column chromatography. The phases are separated by gentle centrifugation at 700 rpm×5'. The organic phase is recovered.
(§5) Labeled arachidonate extracted with CHCl3 /MeOH is separated on silica gel G TLC plates (Analtech). Twenty μL of a 2 mg/ml internal standard solution of arachidonic acid (Sigma) is combined with 2-3 ml of the organic phase. The entire mixture is dried under nitrogen and redissolved in 50 μL of CHCl3 /MeOH (2:1). A 20 μL sample is counted in 10 ml of Beckman Redi-solv HP and spotted on silica gel G plates. The solvent system used to develop the plate is CHCl3 /MeOH/13.5N NH3 /H2 O (70:30:4:1). Plates are developed in a glass chamber for 1-11/2 hours, air dried, and the spots visualized in an iodine vapor chamber. Standards of phosphatidylcholine, lyso PC, and arachidonic acid (Sigma) are made as 2 mg/ml stocks in CHCl3 /MeOH (2:1) and spotted on plates. Spots corresponding to arachidonate and phospholipid are scraped and counted in 10 ml Beckman Redi-Solv HP scintillation fluid.
(§6) Samples are extracted with hexane/ether and the upper organic phase recovered. An aliquot is applied to a Silicar CC4 (Malincrodt) column. Columns are prepared using 1 ml of a 1:1 slurry of silicar CC4 in hexane/ether in a Pasteur pipet (approx. 2 cm height). Columns are rinsed with 500 μL of hexane/ether before adding the sample (300-600 μL) to the column. Columns are eluted with a total of 6 ml of hexane/ether. The 6 ml sample is counted in 10 ml of Beckman Redi-Solv HP scintillation fluid.
(§7) or the phospholipase A2 assay, compounds are prepared as 1 mg/ml stock solutions in MeOH and diluted appropriately in PBS. […]

[2] = molecular target: T1, porcine pancreatic PLA2; test: MPLA2 assay: in vitro porcine pancreatic phospholipase A2, mixed micelle design, substrate 2 nM; conditions: for inhibition at 10 µg/mL: dose 10 μ/ml; for inhibition at 20 µg/mL: dose 20 μ/ml
Description: as §1, §2, §3, §4, §5, §6, §7

[3] = molecular target: T1, porcine pancreatic PLA2; test: MHPLA2 assay: in vitro porcine pancreatic phospholipase A2, mixed micelle design, [s]=10 μm; conditions: for inhibition at 25 µg/mL: dose 25 μ/ml; for inhibition at 50 µg/mL: dose 50 μ/ml; for % Inh. / inhibition at 20 µg/mL: subs. con. 10
How it was run: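 Compounds dried with 10 μM 1-stearyl-2-[3H]-arachidonyl-PC substrate in mixed micelles (0.1M tris-HCl pH 9.0, 10 mM CaCl2, 10 mM Na taurocholate). Reaction started by adding enzyme and run 15 min at 37°C, then stopped with TCA. Released [3H]-arachidonate separated by TLC or column and counted by scintillation.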

[4] = molecular target: T1, porcine pancreatic PLA2; test: PLA2 assay: in vitro porcine pancreatic phospholipase A2, preincubation of drug+enzyme, substrate 2 nM; conditions: preincubation, subs. con. 2; for inhibition at 10 µg/mL: dose 10 μ/ml; for inhibition at 20 µg/mL: dose 20 μ/ml; for IC50: read-out: IC50 (converted)
How it was run: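 Porcine pancreatic PLA2 acting on 2 nM radiolabeled arachidonyl-phosphatidylcholine in mixed micelles (0.1 M Tris-HCl pH 9.0, 10 mM CaCl2, 10 mM Na taurocholate), 15 min at 37 °C with preincubation of drug and enzyme. Stopped with TCA; released 3H-arachidonate extracted, separated by TLC or column, counted by scintillation.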

[5] = dose 10 μ/ml, subs. con. 10, read-out: % Inh. Avg.
[6] = subs. con. 10, read-out: % Inh. Avg.
[7] = subs. con. 10, read-out: % Inh.
[8] = subs. con. 2, read-out: % Inh. Avg.
[9] = dose 25 μ/ml, subs. con. 2, read-out: % Inh.

T1 sequence (P00592 23-146): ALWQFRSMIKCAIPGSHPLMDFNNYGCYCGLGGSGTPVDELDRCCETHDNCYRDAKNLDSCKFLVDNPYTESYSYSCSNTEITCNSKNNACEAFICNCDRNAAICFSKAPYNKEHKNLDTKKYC

| Structure (SMILES) | inhibition at 25 µg/mL ([1]; dose 25 μ/ml, subs. con. 100) [%] | inhibition at 10 µg/mL ([2]; subs. con. 2, read-out: % Inh.) [%] | inhibition at 20 µg/mL ([2]; subs. con. 2, read-out: % Inh.) [%] | IC50 ([2]; subs. con. 2) [µM] | inhibition at 10 µg/mL [3, 5] [%] | inhibition at 25 µg/mL [3, 6] [%] | inhibition at 25 µg/mL [2, 9] [%] | % Inh. ([3]; dose 10 μ/ml) | inhibition at 20 µg/mL ([3]; dose 20 μ/ml) [%] | inhibition at 25 µg/mL [3, 7] [%] | inhibition at 10 µg/mL ([4]; read-out: % Inh.) [%] | inhibition at 20 µg/mL ([4]; read-out: % Inh.) [%] | IC50 [4] [µM] | inhibition at 10 µg/mL ([4]; read-out: % Inh. Avg.) [%] | also measured |
| --- | --- | --- | --- | --- | --- | --- | --- | --- | --- | --- | --- | --- | --- | --- | --- |
| CCCCCCCCCCCCCCCCOCC(COP(=O)([O-])OCC[N+](C)(C)C)OC(=O)C(Br)CCCCCCCCCCCCCCCC (stereo not shown) [10-Bromo-7-[(hexadecyloxy)methyl]-4-hydroxy-N,N,N-trimethyl-9-oxo-3,5,8-trioxa-4-phosphahexacosan-1-aminium, hydroxide, inner salt, 4-oxide] | 1 | 82 | 82 | 1.81 | 8 | 10 |  |  |  |  |  |  |  |  | inhibition at 10 µg/mL ([1]; subs. con. 100): 8%; inhibition at 10 µg/mL ([1]; subs. con. 500): 0%; inhibition at 10 µg/mL ([1]; subs. con. 1000): 5%; inhibition at 25 µg/mL ([1]; dose 25 μ/ml, subs. con. 500): 0%; inhibition at 25 µg/mL ([1]; dose 25 μ/ml, subs. con. 1000): 10%; inhibition at 50 µg/mL ([1]; subs. con. 100): 18%; inhibition at 50 µg/mL ([1]; subs. con. 500): 8%; inhibition at 50 µg/mL ([1]; subs. con. 1000): 6%; inhibition at 50 µg/mL [3, 7]: 37%; inhibition at 50 µg/mL [3, 6]: 137% |
| CCCCCCCCCCCCCCCCOCC(COP(=O)([O-])OCC[N+](C)(C)C)CC(N)CCCCCCCCCCCCCCCC (stereo not shown) [7-(2-Aminooctadecyl)-4-hydroxy-N,N,N-trimethyl-3,5,9-trioxa-4-phosphapentacosanaminium, hydroxide, inner salt, 4-oxide] | 63 | 34 | 72 |  | 70 | 77 | 92 | 59% | 97 | 78 | 95 | 95 | 0.682 |  | % Inh. Avg. ([1]; dose 25 μ/ml, subs. con. 100): 61%; IC50 ([1]; subs. con. 100, read-out: IC50 (converted)): 20.6 µM and 34.1 µM; IC50 ([1]; subs. con. 100, read-out: IC50 Avg. (converted)): 27.3 µM; inhibition at 10 µg/mL [2, 8]: 65%; inhibition at 20 µg/mL [2, 8]: 85%; % Inh. ([2]; dose 25 μ/ml, subs. con. 2): STIM; IC50 ([3]; subs. con. 10, read-out: IC50 (converted)): 1.91 µM and 7.09 µM and 8.73 µM; IC50 ([3]; subs. con. 10, read-out: IC50 Avg. (converted)): 5.87 µM |
| CCCCCCCCCCCCCCCCOCC(CC=NO)COP(=O)([O-])OCC[N+](C)(C)C (stereo not shown) [4-Hydroxy-7-[2-(hydroxyimino)ethyl]-N,N,N-trimethyl-3,5,9-trioxa-4-phosphaoentacosan-1-aminium, hydroxide, inner salt, 4-oxide] |  | 19 | 57 |  |  |  | 51 |  | 8 | 28 | 56 | 81 | 10.1 | 53 | inhibition at 25 µg/mL ([2]; dose 25 μ/ml, subs. con. 2, read-out: % Inh. Avg.): 55%; inhibition at 10 µg/mL ([3]; dose 10 μ/ml, subs. con. 10, read-out: % Inh.): 0% |
| CCCCCCCCCCCCCCCCOCC(COP(=O)([O-])OCC[N+](C)(C)C)CC(O)C(F)(F)CCCCCCCCCCCCCCCC (stereo not shown) [3,5.9-Trioxa-4-phosphapentacosan-1-aminium, 7-(3,3-difluoro-2-hydroxynonadecyl)-4-hydroxy-N,N,N-trimethyl-, hydroxide, inner salt, 4-oxide] |  |  |  |  |  |  | 82 |  |  | 11 | 45 | 49 |  |  |  |
| CCCCCCCCCCCCCCCCOCC(COP(=O)([O-])OCC[N+](C)(C)C)CSCCCCCCCCCCCCCCCC (stereo not shown) [7-[(Hexadecylthio)methyl]-4-hydroxy-N,N,N-trimethyl-3,5,9-trioxa-4-phosphapentacosan-1-aminium, hydroxide, inner salt, 4-oxide] |  | 59 | 69 | 7.61 |  |  | 79 | STIM |  | 81 |  | 61 | 4.75 | 26 | % Inh. ([3]; dose 20 μ/ml): STIM |
